# Key:
# [1] = target: T1, Hepatocyte growth factor receptor (Homo sapiens, UniProt P08581); experiment: Inhibition of purified recombinant c-MET (unknown origin) using poly (Glu, Tyr) substrate after 60 mins by ELISA
# [2] = Antiproliferative activity against human EBC1 cells after 72 hrs; conditions: EBC-1, 72 h
# [3] = target: T2, Vascular endothelial growth factor receptor 2 (Homo sapiens, UniProt P35968); experiment: Inhibition of purified VEGFR2 (unknown origin) after 60 mins by ELISA
# [4] = target: T2, Vascular endothelial growth factor receptor 2; experiment: Inhibition of purified VEGFR2 (unknown origin) at 0.1 uM after 60 mins by ELISA
# [5] = target: Fibroblast growth factor receptor 1 (Homo sapiens) (UniProt P11362); experiment: Inhibition of purified FGFR1 (unknown origin) at 1 uM after 60 mins by ELISA
# [6] = target: T1, Hepatocyte growth factor receptor; experiment: Inhibition of purified c-MET (unknown origin) at 0.1 uM after 60 mins by ELISA
# [7] = target: Proto-oncogene tyrosine-protein kinase receptor Ret (Homo sapiens) (UniProt P07949); experiment: Inhibition of purified RET (unknown origin) at 1 uM after 60 mins by ELISA
# [8] = target: Proto-oncogene tyrosine-protein kinase Src (Homo sapiens) (UniProt P12931); experiment: Inhibition of purified c-Src (unknown origin) at 1 uM after 60 mins by ELISA
# [9] = target: Tyrosine-protein kinase ABL1 (Homo sapiens) (UniProt P00519); experiment: Inhibition of purified ABL (unknown origin) at 1 uM after 60 mins by ELISA
# [10] = target: T2, Vascular endothelial growth factor receptor 2; experiment: Inhibition of purified VEGFR2 (unknown origin) at 0.01 uM after 60 mins by ELISA
# [11] = target: Ephrin type-A receptor 2 (Homo sapiens) (UniProt P29317); experiment: Inhibition of purified EPH-A2 (unknown origin) at 1 uM after 60 mins by ELISA
# [12] = target: Platelet-derived growth factor receptor alpha (Homo sapiens) (UniProt P16234); experiment: Inhibition of purified PDGFRalpha (unknown origin) at 1 uM after 60 mins by ELISA
# [13] = target: Receptor tyrosine-protein kinase erbB-2 (Homo sapiens) (UniProt P04626); experiment: Inhibition of purified ErbB2 (unknown origin) at 1 uM after 60 mins by ELISA
# [14] = target: Platelet-derived growth factor receptor beta (Homo sapiens) (UniProt P09619); experiment: Inhibition of purified PDGFRbeta (unknown origin) at 1 uM after 60 mins by ELISA
# [15] = target: T1, Hepatocyte growth factor receptor; experiment: Inhibition of purified c-MET (unknown origin) at 0.01 uM after 60 mins by ELISA
# [16] = target: ALK tyrosine kinase receptor (Homo sapiens) (UniProt Q9UM73); experiment: Inhibition of purified ALK (unknown origin) at 1 uM after 60 mins by ELISA
# [17] = target: T2, Vascular endothelial growth factor receptor 2; experiment: Inhibition of purified VEGFR2 (unknown origin) at 1 uM after 60 mins by ELISA
# [18] = target: Epidermal growth factor receptor (Homo sapiens) (UniProt P00533); experiment: Inhibition of purified EGFR (unknown origin) at 1 uM after 60 mins by ELISA
# [19] = target: Insulin-like growth factor 1 receptor (Homo sapiens) (UniProt P08069); experiment: Inhibition of purified IGF1R (unknown origin) at 1 uM after 60 mins by ELISA
# [20] = target: Vascular endothelial growth factor receptor 1 (Homo sapiens) (UniProt P17948); experiment: Inhibition of purified Flt1 (unknown origin) at 1 uM after 60 mins by ELISA
# [21] = target: T1, Hepatocyte growth factor receptor; experiment: Inhibition of purified c-MET (unknown origin) at 1 uM after 60 mins by ELISA
# [22] = target: Receptor tyrosine-protein kinase erbB-4 (Homo sapiens) (UniProt Q15303); experiment: Inhibition of purified ErbB4 (unknown origin) at 1 uM after 60 mins by ELISA
# [23] = target: ALK tyrosine kinase receptor (Homo sapiens) (UniProt Q9UM73); experiment: Inhibition of purified ALK (unknown origin) at 0.1 uM after 60 mins by ELISA
Structure (SMILES),IC50 [1] [nM],IC50 [2] [nM],also measured
Cn1nccc1-c1ccc(NC(=O)C2(C(=O)Nc3ccc(-c4cccc5onc(N)c45)cc3)CC2)cc1,> 1000,,
Nc1n[nH]c2cccc(-c3ccc(NC(=O)C4(C(=O)Nc5ccc(F)cc5F)CC4)cc3)c12,,990,
CC(=O)c1ccc(-c2ccc(NC(=O)C3(C(=O)Nc4ccc(-c5cccc6onc(N)c56)cc4)CC3)cc2)s1,> 1000,,
Cc1ccc(NC(=O)C2(C(=O)Nc3ccc(-c4cccc5[nH]nc(N)c45)c(F)c3)CC2)cc1,,910,
C[C@@H](Oc1cc(-c2cnn(C3CCNCC3)c2)cnc1N)c1c(Cl)ccc(F)c1Cl [CRIZOTINIB],,21,
CN1CCN(Cc2cc(NC(=O)C3(C(=O)Nc4ccc(-c5cccc6[nH]nc(N)c56)cc4)CC3)ccc2Cl)CC1,,> 10000,
Nc1n[nH]c2cccc(-c3ccc(NC(=O)C4(C(=O)Nc5ccc(Cl)cc5)CC4)cc3F)c12,,990,
Nc1n[nH]c2cccc(-c3ccc(NC(=O)C4(C(=O)Nc5ccc(F)cc5)CC4)c4ccccc34)c12,> 1000,,
Cc1ccc(NC(=O)C2(C(=O)Nc3ccc(-c4cccc5onc(N)c45)cc3)CC2)cc1,,6300,
CN1CCN(c2ccc(NC(=O)C3(C(=O)Nc4ccc(-c5cccc6onc(N)c56)cc4)CC3)cc2F)CC1,> 1000,,
Nc1noc2cccc(-c3ccc(NC(=O)C4(C(=O)Nc5ccc(F)c(F)c5)CC4)cc3)c12,,> 10000,
COc1cc(NC(=O)C2(C(=O)Nc3ccc(F)cc3)CC2)ccc1-c1cccc2[nH]nc(N)c12,> 1000,,
Nc1noc2cccc(-c3ccc(NC(=O)C4(C(=O)Nc5ccc(F)cc5)CC4)cc3F)c12,,900,
Nc1noc2cccc(-c3ccc(NC(=O)C4(C(=O)Nc5ccc(-c6cnn(C7CCNCC7)c6)cc5)CC4)cc3)c12,> 1000,,
Nc1noc2cccc(-c3ccc(NC(=O)CC(=O)Nc4ccc(F)cc4)cc3)c12,,> 10000,
CC(C)C(C(=O)Nc1ccc(F)cc1)C(=O)Nc1ccc(-c2cccc3onc(N)c23)cc1 (stereo unspecified),> 1000,,
Cn1cc(-c2ccc(NC(=O)C3(C(=O)Nc4ccc(-c5cccc6onc(N)c56)cc4)CC3)cc2)cn1,> 1000,,
Nc1noc2cccc(-c3ccc(NC(=O)C4(C(=O)Nc5ccc(F)cc5F)CC4)cc3)c12,,> 10000,
Cc1cc(NC(=O)C2(C(=O)Nc3ccc(F)cc3)CC2)ccc1-c1cccc2[nH]nc(N)c12,,1000,
Nc1noc2cccc(-c3ccc(NC(=O)C4(C(=O)Nc5ccc(F)cc5)CC4)cc3)c12,,1200,IC50 [3]: > 1000 nM
COc1cc(NC(=O)C2(C(=O)Nc3ccc(-c4cccc5onc(N)c45)cc3)CC2)cc(OC)c1OC,> 1000,,
Nc1noc2cccc(-c3ccc(NC(=O)C4(C(=O)Nc5ccc(Cl)cc5)CC4)cc3)c12,,6700,
Nc1noc2cccc(-c3ccc(NC(=O)C4(C(=O)Nc5ccc(-c6cnn(C7CCOCC7)c6)cc5)CC4)cc3)c12,> 1000,,
Nc1n[nH]c2cccc(-c3ccc(NC(=O)C4(C(=O)Nc5ccc(F)cc5)CC4)cc3)c12,,820,
Nc1n[nH]c2cccc(-c3ccc(NC(=O)C4(C(=O)Nc5ccc(F)cc5)CC4)cc3F)c12,1.8,180,inhibition [4]: 89.9%; inhibition [5]: 21.5%; inhibition [6]: 100%; inhibition [7]: 66.1%; inhibition [8]: 11.8%; inhibition [9]: 9.8%; inhibition [10]: 45.8%; inhibition [11]: 38.4%; inhibition [12]: 62.5%; inhibition [13]: 0%; inhibition [14]: 59.3%; inhibition [15]: 69.7%; inhibition [16]: 64.9%; inhibition [17]: 100%; inhibition [18]: 2.5%; inhibition [19]: 45.3%; inhibition [20]: 40.8%; inhibition [21]: 100%; inhibition [22]: 3%; inhibition [23]: 36.2%
Nc1noc2cccc(-c3ccc(NC(=O)C4(C(=O)Nc5cccc(F)c5)CC4)cc3)c12,> 1000,,
CN(C)Cc1cc(NC(=O)C2(C(=O)Nc3ccc(F)cc3)CC2)ccc1-c1cccc2[nH]nc(N)c12,> 1000,,
Nc1n[nH]c2cccc(-c3ccc(NC(=O)C4(C(=O)Nc5ccc(F)cc5)CC4)c(F)c3)c12,,510,
CC(C)(C(=O)Nc1ccc(F)cc1)C(=O)Nc1ccc(-c2cccc3onc(N)c23)cc1,> 1000,,
